# Key:
# [1] = In vitro continuous hemofiltration (CVVH) model, sieving coefficient; assay type: in vitro ADME, bovine; conditions: for Mean sieving coefficient: CVVH
# Experimental: The procedure for the CVVH study was conducted using the model CVVH system illustrated in FIG. 5. The CLTM of urea and MB-102 were evaluated with different blood flow rates, ultrafiltration rate (Quf) and hemodiafilters (Table 1). In a closed-loop system, the formed effluent was returned to the blood as a post-filter replacement fluid downstream from the post-hemodiafilter blood sampling port. Pre- and post-hemodiafilter blood samples, and effluent samples were collected concurrently. Six experiments were conducted for each hemodiafilter, and new hemodiafilters and CRRT apparatus were used for each experiment. Sieving coefficient (SC) and CLTM were calculated as follows:
# [formula] where Sc is the sieving coefficient; Cuf is the concentration in the effluent; Ca is the concentration of the solute in the pre-filter; and Cv is the concentration of the solute in the post-filter. CLconv=SC×QUF Equation (4) wherein CLconv is the convective clearance for the post-filter replacement; QUF is the ultrafiltration rate.
# (§1) All blood samples were collected and centrifuged at 3000 rpm for 10 minutes. The plasma and effluent samples were transferred to cryovials in duplicate and stored at −80° C. until analysis. BUN concentrations were analyzed with Advia 1800 (Siemens Healthcare Diagnostic Inc., Tarrytown, N.Y., USA) having a lower limit of quantification of 5 mg/dL.
# (§2) Similarly, six CVVH and CVVHD experiments with each hemodiafilter were used to detect a 25% difference in MB-102 CLTM between hemodiafilters. Assumptions used in these calculations included: a power of 90% and a standard deviation of 10% with a significance level of p<0.05. A two-tailed, unpaired t-test was used to compare differences between the two hemodiafilters, and the analysis of variance was used to compare different QUF and Qd within each hemodiafilter type.
# [2] = In vitro continuous hemodialysis (CVVHD) model, saturation coefficient; assay type: in vitro ADME, bovine; conditions: for Saturation coefficient (mean ± SD): blood flow 200 mL/min
# Experimental: For CVVHD experiments, the CLTM was assessed using a previously validated in vitro CVVHD model as illustrated in FIG. 6. Commonly used effluent flow rates of 16, 33, 50, and 100 mL/min, and a blood flow rate of 200 mL/min were used. Effluent was prepared according to directions from the manufacturer by mixing sodium bicarbonate powder (NATURALYTE® 4000, Fresenius Medical Care, Waltham, Mass., USA) with distilled water in a 45:1 ratio. After adding MB-102 and urea to the blood, it was recirculated through the circuit for 5 min for uniform coating of the extracorporeal circuit. A single-pass mode of the CVVHD procedure with four different flow rates was run in random order for each hemodiafilter. Blood samples were collected from the pre- and post-filter ports, and spent effluent samples were taken from the effluent port 5 min after initiation of the CVVHD experiments at all four effluent flow rates. These experiments were conducted on 6 new hemodiafilters and CRRT tubing sets. Saturation coefficient (SA) and CLTM were calculated as follows:
# [formula] CLdiff=(SA×Qd) Equation (6)
# where SA is the saturation coefficient; CUF is the concentration in the effluent; Ca is the concentration of the solute in the pre-filter; CV is the concentration of the solute in the post-filter; CLdiff is the diffusion clearance for post-filter replacement; Qd is the effluent flow rate.
# as §1, §2
# [3] = In vivo clearance by CVVHD in porcine model with bilateral nephrectomy; parameters: species or system Swine
# [4] = assembly on chest (QLS26), blood flow rate 100, effluent flow rate 20 mL/min, 1st of four regions
# [5] = assembly on chest (QLS26), blood flow rate 200, effluent flow rate 35 mL/min, 2nd of four regions
# [6] = assembly on chest (QLS26), blood flow rate 200, effluent flow rate 35 mL/min, 4th of four regions
# [7] = assembly on sternum (QLS25), blood flow rate 100, effluent flow rate 20 mL/min, 1st of four regions
# [8] = assembly on sternum (QLS25), blood flow rate 100, effluent flow rate 20 mL/min, 3rd of four regions
# [9] = assembly on sternum (QLS25), blood flow rate 200, effluent flow rate 35 mL/min, 2nd of four regions
# [10] = assembly on sternum (QLS25), blood flow rate 200, effluent flow rate 35 mL/min, 4th of four regions
structure (smiles),measurement,setting,value
"Nc1nc(C(=O)N[C@H](CO)C(=O)O)c(N)nc1C(=O)N[C@H](CO)C(=O)O [MB-102, (2R,2′R)-2,2′-((3,6-diaminopyrazine-2,5-dicarbonyl)bis(azanediyl))bis(3-hydroxypropanoic acid)]",Mean sieving coefficient,"[1]; HF1400, ultrafiltration rate 16.7 mL/min",1.14 ± 0.06
same,Mean sieving coefficient,"[1]; HF1400, ultrafiltration rate 33.3 mL/min",1.17 ± 0.03
same,Mean sieving coefficient,"[1]; HF1400, ultrafiltration rate 50 mL/min",1.18 ± 0.05
same,Mean sieving coefficient,"[1]; M150, ultrafiltration rate 16.7 mL/min",1.17 ± 0.12
same,Mean sieving coefficient,"[1]; M150, ultrafiltration rate 33.3 mL/min",1.17 ± 0.07
same,Mean sieving coefficient,"[1]; M150, ultrafiltration rate 50 mL/min",1.16 ± 0.07
same,Sieving coefficient (SC),"[1]; three different Quf, both hemodiafilters",approximately 1
same,Saturation coefficient (mean ± SD),"[2]; CVVHD, HF1400, Qd 16.7 mL/min",1.27 ± 0.07
same,Saturation coefficient (mean ± SD),"[2]; CVVHD, HF1400, Qd 33.3 mL/min",1.27 ± 0.09
same,Saturation coefficient (mean ± SD),"[2]; CVVHD, HF1400, Qd 50 mL/min",1.37 ± 0.07
same,Saturation coefficient (mean ± SD),"[2]; CVVHD, HF1400, Qd 100 mL/min",1.02 ± 0.20
same,Saturation coefficient (mean ± SD),"[2]; CVVHD, M150, Qd 16.7 mL/min",1.06 ± 0.17
same,Saturation coefficient (mean ± SD),"[2]; CVVHD, M150, Qd 33.3 mL/min",1.11 ± 0.06
same,Saturation coefficient (mean ± SD),"[2]; CVVHD, M150, Qd 50 mL/min",1.60 ± 0.06
same,Saturation coefficient (mean ± SD),"[2]; CVVHD, M150, Qd 100 mL/min",0.84 ± 0.04
same,"Saturation coefficient (SA), overall summary in text","[2]; CVVHD, both hemodiafilters",approximately 1
same,mean SA values,[2]; low effluent flow rates (16-50 mL/min),approximately unity
same,MB-102 Clearance Rate Constant,[3]; [4],0.1439 h⁻¹
same,RDTC,[3]; [4],6.94 h
same,RDTC,"[3]; assembly on chest (QLS26), blood flow rate 100, effluent flow rate 20 mL/min, 3rd of four regions",11.87 h
same,MB-102 Clearance Rate Constant,[3]; [5],0.1769 h⁻¹
same,RDTC,[3]; [5],5.65 h
same,MB-102 Clearance Rate Constant,[3]; [6],0.1192 h⁻¹
same,RDTC,[3]; [6],8.39 h
same,MB-102 Clearance Rate Constant,[3]; [7],0.1174 h⁻¹
same,RDTC,[3]; [7],8.52 h
same,MB-102 Clearance Rate Constant,[3]; [8],0.0871 h⁻¹
same,RDTC,[3]; [8],11.48 h
same,MB-102 Clearance Rate Constant,[3]; [9],0.1870 h⁻¹
same,RDTC,[3]; [9],5.35 h
same,MB-102 Clearance Rate Constant,[3]; [10],0.1288 h⁻¹
same,RDTC,[3]; [10],7.76 h

# Source: patent US12102432B2, “Uses of transdermal glomerular filtration rate measurement in continuous renal replacement therapy” (MediBeacon Inc., priority 2018, dated 2024)
